Source: patent EP4725957A1, “GROUP OF CYCLIC ALKALINE LIPOPEPTIDE COMPOUNDS, AND PREPARATION METHOD THEREFOR AND USE THEREOF” (Institute of Medicinal Biotechnology, Chinese Academy of …, priority 2023, dated 2024)
≈ marks a conversion by molar mass, not a printed value. Bridge positions count the residues as written; N and C are the ends. Square brackets hold non-standard residues; d marks the D form. Peptide text beside a SMILES is read from it. * marks the point of attachment. Dab(CH2SO3H) = N[C@@H](CCNCS(=O)(=O)O)C(=O)O; Heptanoyl(6-Me) = CC(C)CCCCC(=O)*; Nonanoyl = CCCCCCCCC(=O)*; X1 = CC[C@H](C)CCCCC(=O)*; dDab = NCC[C@@H](N)C(=O)O; Heptanoyl = CCCCCCC(=O)*; Octanoyl = CCCCCCCC(=O)*; Orn = NCCC[C@H](N)C(=O)O; dDap = NC[C@@H](N)C(=O)O; Dab = NCC[C@H](N)C(=O)O; Dap = NC[C@H](N)C(=O)O

Columns and labels:
Assay type in all cases: cell-based
[1] = Nephrotoxicity assay: in vitro cytotoxicity of HK-2 cells by CCK-8 assay; details: human, HK-2 cells (human renal), 72 h incubation with drug-containing medium
In short: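 HK-2 human renal cells in RPMI-1640 with 10% FBS were exposed to compounds at final 12.5–500 µg/mL for 72 h, then CCK-8 for 3 h and OD450 read. Viability was normalised to drug-free wells; IC50 came from logarithmic regression over three repeats, with polymyxin B as positive drug.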

[2] = system: Escherichia coli ATCC BAA-2523; details: ATCC BAA-2523
In short: (§1)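 Broth microdilution MIC per CLSI in MH broth, compounds 2-fold diluted to final 64–0.03 mg/L. Inoculum (2-4) × 10^5 CFU/mL final, from 0.5 McFarland suspensions of 18-24 h colonies. Plates sealed and incubated 35-37°C for 16-20 h.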

[3] = system: Escherichia coli ATCC BAA-2340 (KPC); details: ATCC BAA-2340
In short: as §1

[4] = system: Klebsiella pneumoniae KPN+19-15; details: KPN+19-15
In short: as §1

[5] = system: Pseudomonas aeruginosa PAE19-3; details: PAE19-3
In short: as §1

[6] = system: Acinetobacter baumannii ABA19-1; details: ABA19-1
In short: as §1

[7] = system: Pseudomonas aeruginosa ATCC 27853; details: ATCC 27853
In short: as §1

[8] = system: Acinetobacter baumannii NCTC 13304 (OXA-27); details: NCTC 13304
In short: as §1

[9] = system: Klebsiella pneumoniae ATCC BAA-1705 (KPC); details: ATCC BAA-1705
In short: as §1

| Structure (SMILES) | IC50 at 72 h [1] | MIC [2] | MIC [3] | MIC [4] | MIC [5] | MIC [6] | MIC [7] | MIC [8] | MIC [9] |
| --- | --- | --- | --- | --- | --- | --- | --- | --- | --- |
| CCCCCCCC(=O)N[C@@H](CCN)C(=O)N[C@H](C(=O)N[C@H](CCN)C(=O)N[C@H]1CCNC(=O)[C@H]([C@@H](C)O)NC(=O)[C@H](CCN)NC(=O)[C@H](CCN)NC(=O)[C@H]([C@@H](C)O)NC(=O)[C@@H](Cc2ccccc2)NC(=O)[C@H](CCN)NC1=O)[C@@H](C)O [Compound 13, Octanoyl-Dab-Thr-D-Dab-ring(4-10)[Dab-Dab-D-Phe-Thr-Dab-Dab-Thr]] (Octanoyl-[Dab]T[dDab][Dab][Dab][dF]T[Dab][Dab]T; lactam 4-C) | > 500 µg/mL | ≤0.03 µg/mL | ≤0.03 µg/mL | ≤0.03 µg/mL | 1 µg/mL (≈ 0.849 µM) | ≤0.03 µg/mL | 1 µg/mL (≈ 0.849 µM) | ≤0.03 µg/mL | 0.06 µg/mL (≈ 0.051 µM) |
| CCCCCCC(=O)N[C@@H](CCN)C(=O)N[C@H](C(=O)N[C@H](CN)C(=O)N[C@H]1CCNC(=O)[C@H]([C@@H](C)O)NC(=O)[C@H](CCN)NC(=O)[C@H](CCN)NC(=O)[C@H]([C@@H](C)O)NC(=O)[C@@H](Cc2ccccc2)NC(=O)[C@H](CCN)NC1=O)[C@@H](C)O [Compound 4, Heptanoyl-Dab-Thr-D-Dap-ring(4-10)[Dab-Dab-D-Phe-Thr-Dab-Dab-Thr]] (Heptanoyl-[Dab]T[dDap][Dab][Dab][dF]T[Dab][Dab]T; lactam 4-C) | > 500 µg/mL | 0.03 µg/mL (≈ 0.0261 µM) | 0.03 µg/mL (≈ 0.0261 µM) | 0.03 µg/mL (≈ 0.0261 µM) | 0.25 µg/mL (≈ 0.218 µM) | 0.03 µg/mL (≈ 0.0261 µM) | 0.03 µg/mL (≈ 0.0261 µM) | 0.03 µg/mL (≈ 0.0261 µM) | 0.03 µg/mL (≈ 0.0261 µM) |
| CC(C)CCCCC(=O)N[C@@H](CCN)C(=O)N[C@H](C(=O)N[C@@H](CN)C(=O)N[C@H]1CCNC(=O)[C@H]([C@@H](C)O)NC(=O)[C@H](CCN)NC(=O)[C@H](CCNCS(=O)(=O)O)NC(=O)[C@H]([C@@H](C)O)NC(=O)[C@@H](Cc2ccccc2)NC(=O)[C@H](CCN)NC1=O)[C@@H](C)O [Compound 119, 6-methylheptanoyl-Dab-Thr-Dap-ring(4-10)[Dab-Dab-D-Phe-Thr-Dab(CH2SO3H)-Dab-Thr]] ({Heptanoyl(6-Me)}-[Dab]T[Dap][Dab][Dab][dF]T[Dab(CH2SO3H)][Dab]T; lactam 4-C) | > 500 µg/mL | 0.06 µg/mL (≈ 0.0477 µM) | 0.06 µg/mL (≈ 0.0477 µM) | 0.125 µg/mL (≈ 0.0994 µM) | 0.5 µg/mL (≈ 0.398 µM) | 0.25 µg/mL (≈ 0.199 µM) | 0.25 µg/mL (≈ 0.199 µM) | 0.06 µg/mL (≈ 0.0477 µM) | 0.125 µg/mL (≈ 0.0994 µM) |
| CC(C)CCCCC(=O)N[C@@H](CCN)C(=O)N[C@H](C(=O)N[C@H](CO)C(=O)N[C@H]1CCNC(=O)[C@H]([C@@H](C)O)NC(=O)[C@H](CCCN)NC(=O)[C@H](CCN)NC(=O)[C@H]([C@@H](C)O)NC(=O)[C@@H](Cc2ccccc2)NC(=O)[C@H](CCN)NC1=O)[C@@H](C)O [Compound 87, 6-methylheptanoyl-Dab-Thr-D-Ser-ring(4-10)[Dab-Dab-D-Phe-Thr-Dab-Orn-Thr]] ({Heptanoyl(6-Me)}-[Dab]T[dS][Dab][Dab][dF]T[Dab][Orn]T; lactam 4-C) | > 500 µg/mL | 0.03 µg/mL (≈ 0.0255 µM) | 0.03 µg/mL (≈ 0.0255 µM) | 0.5 µg/mL (≈ 0.424 µM) | 64 µg/mL (≈ 54.3 µM) | 0.06 µg/mL (≈ 0.0509 µM) | >64 µg/mL | ≤0.03 µg/mL | 0.25 µg/mL (≈ 0.212 µM) |
| CCCCCCCCC(=O)N[C@@H](CCN)C(=O)N[C@H](C(=O)N[C@@H](CCN)C(=O)N[C@H]1CCNC(=O)[C@H]([C@@H](C)O)NC(=O)[C@H](CCN)NC(=O)[C@H](CCN)NC(=O)[C@H]([C@@H](C)O)NC(=O)[C@@H](Cc2ccccc2)NC(=O)[C@H](CCN)NC1=O)[C@@H](C)O [Compound 20, Nonanoyl-Dab-Thr-Dab-ring(4-10)[Dab-Dab-D-Phe-Thr-Dab-Dab-Thr]] (Nonanoyl-[Dab]T[Dab][Dab][Dab][dF]T[Dab][Dab]T; lactam 4-C) | 280 ± 10.3 µg/mL (≈ 235 µM) | 0.06 µg/mL (≈ 0.0504 µM) | 0.06 µg/mL (≈ 0.0504 µM) | 0.06 µg/mL (≈ 0.0504 µM) | 2 µg/mL (≈ 1.68 µM) | 0.5 µg/mL (≈ 0.42 µM) | 2 µg/mL (≈ 1.68 µM) | 0.25 µg/mL (≈ 0.21 µM) | 0.06 µg/mL (≈ 0.0504 µM) |
| CCCCCCCCC(=O)N[C@@H](CCN)C(=O)N[C@H](C(=O)N[C@@H](CCCN)C(=O)N[C@H]1CCNC(=O)[C@H]([C@@H](C)O)NC(=O)[C@H](CCN)NC(=O)[C@H](CCN)NC(=O)[C@H](CC(C)C)NC(=O)[C@@H](Cc2ccccc2)NC(=O)[C@H](CCN)NC1=O)[C@@H](C)O [Compound 50, Nonanoyl-Dab-Thr-Orn-ring(4-10)[Dab-Dab-D-Phe-Leu-Dab-Dab-Thr]] (Nonanoyl-[Dab]T[Orn][Dab][Dab][dF]L[Dab][Dab]T; lactam 4-C) | 150 ± 5.2 µg/mL (≈ 123 µM) | 0.06 µg/mL (≈ 0.0493 µM) | 0.06 µg/mL (≈ 0.0493 µM) | 0.03 µg/mL (≈ 0.0246 µM) | 0.5 µg/mL (≈ 0.411 µM) | 0.125 µg/mL (≈ 0.103 µM) | 0.03 µg/mL (≈ 0.0246 µM) | 0.06 µg/mL (≈ 0.0493 µM) | 0.03 µg/mL (≈ 0.0246 µM) |
| CCCCCCCCC(=O)N[C@@H](CCN)C(=O)N[C@H](C(=O)N[C@H](CO)C(=O)N[C@H]1CCNC(=O)[C@H]([C@@H](C)O)NC(=O)[C@H](CCN)NC(=O)[C@H](CCN)NC(=O)[C@H]([C@@H](C)O)NC(=O)[C@@H](Cc2ccccc2)NC(=O)[C@H](CN)NC1=O)[C@@H](C)O [Compound 65, Nonanoyl-Dab-Thr-D-Ser-ring(4-10)[Dab-Dap-D-Phe-Thr-Dab-Dab-Thr]] (Nonanoyl-[Dab]T[dS][Dab][Dap][dF]T[Dab][Dab]T; lactam 4-C) | 370 ± 31.8 µg/mL (≈ 318 µM) | 0.25 µg/mL (≈ 0.215 µM) | 0.25 µg/mL (≈ 0.215 µM) | 0.5 µg/mL (≈ 0.429 µM) | 8 µg/mL (≈ 6.87 µM) | 0.25 µg/mL (≈ 0.215 µM) | 64 µg/mL (≈ 55 µM) | 0.25 µg/mL (≈ 0.215 µM) | 0.25 µg/mL (≈ 0.215 µM) |
| CCCCCCC(=O)N[C@@H](CN)C(=O)N[C@H](C(=O)N[C@H](CCN)C(=O)N[C@H]1CCNC(=O)[C@H]([C@@H](C)O)NC(=O)[C@H](CCN)NC(=O)[C@H](CCN)NC(=O)[C@H](CC(C)C)NC(=O)[C@@H](CC(C)C)NC(=O)[C@H](CCN)NC1=O)[C@@H](C)O [Compound 99, Heptanoyl-Dap-Thr-D-Dab-ring(4-10)[Dab-Dab-D-Leu-Leu-Dab-Dab-Thr]] (Heptanoyl-[Dap]T[dDab][Dab][Dab][dL]L[Dab][Dab]T; lactam 4-C) | 317 ± 18.1 µg/mL (≈ 281 µM) | 0.06 µg/mL (≈ 0.0532 µM) | 0.06 µg/mL (≈ 0.0532 µM) | 0.03 µg/mL (≈ 0.0266 µM) | 1 µg/mL (≈ 0.887 µM) | 0.03 µg/mL (≈ 0.0266 µM) | 1 µg/mL (≈ 0.887 µM) | 0.03 µg/mL (≈ 0.0266 µM) | 0.03 µg/mL (≈ 0.0266 µM) |
| CC[C@H](C)CCCCC(=O)N[C@@H](CCN)C(=O)N[C@H](C(=O)N[C@H](CO)C(=O)N[C@H]1CCNC(=O)[C@H]([C@@H](C)O)NC(=O)[C@H](CCCN)NC(=O)[C@H](CCN)NC(=O)[C@H]([C@@H](C)O)NC(=O)[C@@H](Cc2ccccc2)NC(=O)[C@H](CCN)NC1=O)[C@@H](C)O [Compound 86, (S)-6-methyloctanoyl-Dab-Thr-D-Ser-ring(4-10)[Dab-Dab-D-Phe-Thr-Dab-Orn-Thr]] (X1-[Dab]T[dS][Dab][Dab][dF]T[Dab][Orn]T; lactam 4-C) | > 500 µg/mL | 0.03 µg/mL (≈ 0.0252 µM) | 0.03 µg/mL (≈ 0.0252 µM) | 0.5 µg/mL (≈ 0.419 µM) | 64 µg/mL (≈ 53.7 µM) | 0.06 µg/mL (≈ 0.0503 µM) | >64 µg/mL | ≤0.03 µg/mL | 0.25 µg/mL (≈ 0.21 µM) |
